From patent US20220370381A1 (priority 2016, published 2022)

What was measured:
Swiss OF-1 mice [1] = assay: Step-through passive avoidance, dizocilpine-induced deficit; assay type: in vivo, mouse
[2] = tested on: wild-type zebrafish (ZF) larvae; assay: PTZ-induced seizures in wild-type zebrafish larvae, behavioral (locomotor) assay; assay type: in vivo; settings: wt zebrafish; p>0.05 vs. VHC+PTZ
[3] = tested on: homozygous scn1Lab−/− mutant zebrafish; assay: Locomotor (behavioral) assay in homozygous scn1Lab−/− mutant zebrafish larvae (Dravet syndrome model); assay type: in vivo; settings: 25, 50 or 100 μM for 24 h, 6 dpf larvae; p<0.05 vs. VHC
Description: ZF larvae were treated on 6 dpf with vehicle (VHC, 0.1% dimethyl sulfoxide, DMSO, or FA (25, 50 or 100 μM) for 24 h. Thereafter, the locomotor activity (behavior) was monitored by an automated tracking device. Subsequently, forebrain local field potentials and forebrain activity (LFPs, brain activity) were measured to confirm anticonvulsant effects of FA treatment, if indicated by the behavioral assays.

Sigma 1 = Sigma 1 (Cavia porcellus, UniProt Q60492); assay: Sigma-1 receptor tissue bioassay, guinea pig vas deferens, agonist activity (twitch contraction); parameters: Segments of guinea pig vas deferens were suspended in 20-ml organ baths; from tissue; host or cells: guinea pig vas deferens; settings: field-stimulated guinea pig vas deferens, compound alone
Swiss OF-1 mice [4] = assay: Spontaneous alternation in the Y-maze, dizocilpine-induced deficit; assay type: in vivo, mouse
[5] = dizocilpine […], most active doses 0.3 and 1 mg/kg IP

Sigma 1, sequence (Q60492 whole entry): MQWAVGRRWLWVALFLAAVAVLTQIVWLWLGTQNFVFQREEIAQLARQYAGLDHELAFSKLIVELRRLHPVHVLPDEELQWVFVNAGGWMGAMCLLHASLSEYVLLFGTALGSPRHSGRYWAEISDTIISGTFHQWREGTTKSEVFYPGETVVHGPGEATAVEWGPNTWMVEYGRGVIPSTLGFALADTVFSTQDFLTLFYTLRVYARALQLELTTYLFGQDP

**Q.** With `CCNC(C)Cc1cccc(C(F)(F)F)c1` (racemic) [fenfluramine, (RS)—N-ethyl-1-[3-(trifluoromethyl)phenyl]propan-2-amine] as the molecule, how does the “dose attenuating dizocilpine-induced deficit in passive avoidance response (minimal active dose)” value (Swiss OF-1 mice [1]; IP, 0.1 mg/kg not active) read?
**A.** The value was 0.3 mg/kg.

**Q.** And the “dizocilpine-induced deficit of passive avoidance learning” value (Swiss OF-1 mice [1]; [5])?
**A.** Its value is “significantly attenuated”.

**Q.** And the “antiseizure effect on PTZ-induced seizures” value [2]?
**A.** Its value is “no observable antiseizure effects”.

**Q.** And the “epileptiform behavior (locomotor activity)” value [3]?
**A.** Its value is “significantly decreased”.

**Q.** And the “effect on twitch contraction amplitude” value (Sigma 1)?
**A.** Its value is “did not significantly affect”.

**Q.** What about the “dizocilpine-induced deficit of spontaneous alternation” value (Swiss OF-1 mice [4]; [5]) of the same molecule?
**A.** The value was “significantly attenuated”.

**Q.** What about the “interaction with PRE-084 (sigma-1 receptor behaviour in vivo)” value (Swiss OF-1 mice [4]; fenfluramine at maximal inactive dose (0.1), Y-maze and passive avoidance data) of the same molecule?
**A.** Its value is “behaves as a sigma-1 receptor PAM”.
